From PubChem BioAssay (NCI)
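Exposure lasted 48 hours, with cells grown in 96-well plates and compounds tested at five concentrations. At the TGI there is no net growth.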

Assays:
Experiment in all cases: growth of human tumour cells (NCI), 48 h
[1] = test system: HL-60(TB) leukemia
[2] = test system: SW-620 colon
[3] = test system: 786-0 renal
[4] = test system: SN12C renal
[5] = test system: M14 melanoma
[6] = test system: NCI-H226 lung
[7] = test system: LXFL 529 NSCLC
[8] = test system: NCI-H23 lung
[9] = test system: K-562 leukemia
[10] = test system: SNB-19 CNS
[11] = test system: UACC-257 melanoma
[12] = test system: DMS 273 small cell lung
[13] = test system: LOX IMVI melanoma
[14] = test system: SK-MEL-5 melanoma
[15] = test system: HCT-15 colon
[16] = test system: HOP-92 NSCLC
[17] = test system: SK-MEL-28 melanoma
[18] = test system: OVCAR-4 ovarian
[19] = test system: SF-295 CNS
[20] = test system: U251 CNS
[21] = test system: OVCAR-5 ovarian
[22] = test system: MALME-3M melanoma
[23] = test system: MOLT-4 leukemia
[24] = test system: SNB-78 CNS
[25] = test system: XF 498 CNS
[26] = test system: IGROV1 ovarian
[27] = test system: SNB-75 CNS
[28] = test system: UO-31 renal
[29] = test system: HT29 colon
[30] = test system: SF-268 CNS
[31] = test system: HOP-62 NSCLC
[32] = test system: DLD-1 colon
[33] = test system: DMS 114 small cell lung
[34] = test system: NCI-H460 lung
[35] = test system: NCI-H522 lung
[36] = test system: SR leukemia
[37] = test system: A549 NSCLC
[38] = test system: A498 renal
[39] = test system: KM20L2 colon
[40] = test system: SK-MEL-2 melanoma
[41] = test system: COLO 205 colon
[42] = test system: KM12 colon
[43] = test system: M19-MEL melanoma
[44] = test system: HCC-2998 colon
[45] = test system: CCRF-CEM leukemia
[46] = test system: EKVX NSCLC
[47] = test system: SF-539 CNS
[48] = test system: SK-OV-3 ovarian
[49] = test system: ACHN renal
[50] = test system: OVCAR-3 ovarian
[51] = test system: RXF 393 renal
[52] = test system: TK-10 renal
[53] = test system: HCT-116 colon
[54] = test system: HOP-18 NSCLC
[55] = test system: OVCAR-8 ovarian
[56] = test system: UACC-62 melanoma
[57] = test system: RPMI-8226 leukemia

Measured: TGI

COC(=O)/C=C/C1C2C3(CCC(C)C12C)OCCS3 (stereo not given)
not listed: [56] | [57]
> 100 µM: all other assays above

COc1ccc(CC#C/C=C/C(=O)NCC(C)C)cc1
not listed: [31] | [38]
> 100 µM: all other assays above
